pIC50: −log10 of the molar value.
What was measured:
ROCK1 = ROCK1 (Homo sapiens (Human), UniProt Q13464); assay: ROCK assay (LABCHIP peptide phosphorylation), ROCK1; type: biochemical; details: 5 μM ATP, 1.5 μM peptide substrate; read-out: ROCK1 IC50
ROCK2 = ROCK2 (Homo sapiens (Human), UniProt O75116); assay: ROCK assay (LABCHIP peptide phosphorylation), ROCK2; type: biochemical; details: 5 μM ATP, 1.5 μM peptide substrate
Sequence of ROCK2 (O75116 whole entry, species assumed): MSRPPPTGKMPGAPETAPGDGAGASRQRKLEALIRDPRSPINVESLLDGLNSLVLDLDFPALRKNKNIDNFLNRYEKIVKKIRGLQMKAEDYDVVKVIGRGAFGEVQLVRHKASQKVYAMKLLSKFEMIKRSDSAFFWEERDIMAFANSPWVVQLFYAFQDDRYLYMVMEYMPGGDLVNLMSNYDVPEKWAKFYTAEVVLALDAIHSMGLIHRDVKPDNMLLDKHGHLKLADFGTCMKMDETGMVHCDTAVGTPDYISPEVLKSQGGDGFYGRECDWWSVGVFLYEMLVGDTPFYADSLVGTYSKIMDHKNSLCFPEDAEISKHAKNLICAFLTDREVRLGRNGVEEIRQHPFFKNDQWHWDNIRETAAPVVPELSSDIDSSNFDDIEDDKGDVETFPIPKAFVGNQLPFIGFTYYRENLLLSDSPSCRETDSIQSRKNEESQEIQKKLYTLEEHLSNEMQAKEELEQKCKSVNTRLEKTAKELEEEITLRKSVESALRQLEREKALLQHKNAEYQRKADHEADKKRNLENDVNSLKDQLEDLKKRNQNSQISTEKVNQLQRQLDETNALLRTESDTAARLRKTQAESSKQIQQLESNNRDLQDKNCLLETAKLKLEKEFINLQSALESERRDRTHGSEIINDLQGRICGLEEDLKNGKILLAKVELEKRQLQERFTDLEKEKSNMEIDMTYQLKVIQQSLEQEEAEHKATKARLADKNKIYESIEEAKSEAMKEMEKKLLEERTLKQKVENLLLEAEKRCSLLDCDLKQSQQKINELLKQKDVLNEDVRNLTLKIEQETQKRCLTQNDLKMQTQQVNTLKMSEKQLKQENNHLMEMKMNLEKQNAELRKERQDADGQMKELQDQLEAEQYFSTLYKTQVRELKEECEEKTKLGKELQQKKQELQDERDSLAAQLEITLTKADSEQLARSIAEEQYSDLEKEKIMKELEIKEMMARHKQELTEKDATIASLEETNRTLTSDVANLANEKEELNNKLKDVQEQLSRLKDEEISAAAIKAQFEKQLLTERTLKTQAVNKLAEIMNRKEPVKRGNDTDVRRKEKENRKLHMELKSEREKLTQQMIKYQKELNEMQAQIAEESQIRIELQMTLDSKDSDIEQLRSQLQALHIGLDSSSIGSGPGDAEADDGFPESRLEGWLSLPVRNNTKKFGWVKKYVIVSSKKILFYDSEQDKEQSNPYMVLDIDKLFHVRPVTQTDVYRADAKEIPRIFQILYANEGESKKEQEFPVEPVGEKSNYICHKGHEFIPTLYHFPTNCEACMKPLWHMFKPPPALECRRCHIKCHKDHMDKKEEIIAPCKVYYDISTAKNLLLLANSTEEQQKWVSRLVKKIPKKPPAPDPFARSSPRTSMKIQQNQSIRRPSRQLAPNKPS

Sequence of ROCK1 (Q13464 whole entry, species assumed): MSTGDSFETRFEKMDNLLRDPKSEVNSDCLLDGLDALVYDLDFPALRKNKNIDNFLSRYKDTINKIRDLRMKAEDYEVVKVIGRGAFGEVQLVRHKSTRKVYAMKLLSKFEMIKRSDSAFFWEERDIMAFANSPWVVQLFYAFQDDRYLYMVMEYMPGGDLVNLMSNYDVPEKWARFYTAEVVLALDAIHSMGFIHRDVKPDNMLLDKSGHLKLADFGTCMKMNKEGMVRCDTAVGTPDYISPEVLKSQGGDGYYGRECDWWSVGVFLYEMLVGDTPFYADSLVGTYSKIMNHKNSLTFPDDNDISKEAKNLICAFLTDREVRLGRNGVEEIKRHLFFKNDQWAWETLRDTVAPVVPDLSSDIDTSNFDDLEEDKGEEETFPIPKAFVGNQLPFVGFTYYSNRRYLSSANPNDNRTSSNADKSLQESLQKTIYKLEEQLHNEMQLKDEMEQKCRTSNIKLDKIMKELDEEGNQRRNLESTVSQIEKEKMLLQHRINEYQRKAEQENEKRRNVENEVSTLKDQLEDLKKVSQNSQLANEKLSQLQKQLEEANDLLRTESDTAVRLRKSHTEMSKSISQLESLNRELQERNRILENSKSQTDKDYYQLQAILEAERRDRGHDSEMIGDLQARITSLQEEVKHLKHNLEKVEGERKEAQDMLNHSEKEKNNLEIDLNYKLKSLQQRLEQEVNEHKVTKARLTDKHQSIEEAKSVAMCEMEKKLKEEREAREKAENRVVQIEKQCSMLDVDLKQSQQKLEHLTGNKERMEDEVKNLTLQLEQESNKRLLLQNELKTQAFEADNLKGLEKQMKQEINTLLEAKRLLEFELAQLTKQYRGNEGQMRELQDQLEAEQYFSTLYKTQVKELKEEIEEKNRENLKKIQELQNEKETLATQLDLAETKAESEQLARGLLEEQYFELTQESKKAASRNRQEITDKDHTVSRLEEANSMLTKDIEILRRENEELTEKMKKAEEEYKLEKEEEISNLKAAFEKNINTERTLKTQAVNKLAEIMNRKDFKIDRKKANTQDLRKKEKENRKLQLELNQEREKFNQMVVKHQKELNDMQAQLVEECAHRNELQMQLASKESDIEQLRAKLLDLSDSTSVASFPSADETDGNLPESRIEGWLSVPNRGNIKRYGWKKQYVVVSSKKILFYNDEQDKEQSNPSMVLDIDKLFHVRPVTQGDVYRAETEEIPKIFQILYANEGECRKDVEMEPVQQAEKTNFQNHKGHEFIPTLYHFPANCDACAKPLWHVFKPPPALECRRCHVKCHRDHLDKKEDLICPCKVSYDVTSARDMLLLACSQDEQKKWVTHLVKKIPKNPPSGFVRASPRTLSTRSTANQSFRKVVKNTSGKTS

Compound | pIC50 (ROCK1) | pIC50 (ROCK2)
O=C(Nc1ccc(-c2n[nH]c(=O)c3ccccc23)cc1)c1cc2ccccc2n1Cc1ccccc1 [Example 136, 1-benzyl-N-[4-(4-oxo-3,4-dihydrophthalazin-1-yl)phenyl]-1H-indole-2-carboxamide] | 4.30 to 6.00 | 7.00 to 10.00
O=C(Nc1ccc(-c2n[nH]c(=O)c3ccccc23)cc1)c1cnn(C2COC2)c1 [Example 389, 1-(Oxetan-3-yl)-N-(4-(4-oxo-3,4-dihydrophthalazin-1-yl)phenyl)-1H-pyrazole-4-carboxamide] | 6.00 to 7.00 | 7.00 to 10.00
CN1CCN(Cc2ccc3c(c2)CN(C(=O)Cc2ccc(-c4n[nH]c(=O)c5ccccc45)cc2)C3)CC1 [Example 25] | 6.00 to 7.00 | 7.00 to 10.00
O=C(Cc1ccc(-c2n[nH]c(=O)c3ccccc23)cc1)NC1CCC1 [Example 19, N-cyclobutyl-2-[4-(4-oxo-3,4-dihydrophthalazin-1-yl)phenyl]acetamide] | 4.30 to 6.00 | 4.30 to 6.00
O=C(Nc1ccc(-c2n[nH]c(=O)c3ccccc23)cc1)c1csc(-c2ccc(C(F)(F)F)cc2)n1 [Example 48, N-[4-(4-oxo-3,4-dihydrophthalazin-1-yl)phenyl]-2-[4-(trifluoromethyl)phenyl]-1,3-thiazole-4-carboxamide] | 6.00 to 7.00 | 7.00 to 10.00
Cc1cc(CC(=O)N2CCc3ccccc32)ccc1-c1n[nH]c(=O)c2ccccc12 [Example 259, 4-(4-(2-(Indolin-1-yl)-2-oxoethyl)-2-methylphenyl)phthalazin-1(2H)-one] | 6.00 to 7.00 | 7.00 to 10.00
O=C(Nc1ccc(-c2n[nH]c(=O)c3ccccc23)cc1)c1c[nH]c2ncccc12 [Example 135, N-[4-(4-oxo-3,4-dihydrophthalazin-1-yl)phenyl]-1H-pyrrolo[2,3-b]pyridine-3-carboxamide] | 6.00 to 7.00 | 7.00 to 10.00
O=c1[nH]nc(-c2ccc(Nc3nc(-c4ccccc4)cs3)cc2)c2ccccc12 [Example 74, 4-(4-((4-Phenylthiazol-2-yl)amino)phenyl)phthalazin-1(2H)-one] | 4.30 to 6.00 | 7.00 to 10.00
Cc1cc(NC(=O)c2c3ccccc3nn2CCN(C)C)ccc1-c1n[nH]c(=O)c2ccccc12 [Example 304, 2-[2-(dimethylamino)ethyl]-N-[3-methyl-4-(4-oxo-3,4-dihydrophthalazin-1-yl)phenyl]-2H-indazole-3-carboxamide] | 6.00 to 7.00 | 7.00 to 10.00
COc1cc2c(-c3ccc(CC(=O)N4Cc5ccccc5C4)cc3)c[nH]c(=O)c2cc1OC [Example 255, 4-(4-(2-(Isoindolin-2-yl)-2-oxoethyl)phenyl)-6,7-dimethoxyisoquinolin-1(2H)-one] | 4.30 to 6.00 | 6.00 to 7.00
Cc1cc(NC(=O)c2nn(CC(C)(C)O)c3ccccc23)ccc1-c1n[nH]c(=O)c2ccccc12 [Example 301, 1-(2-hydroxy-2-methylpropyl)-N-[3-methyl-4-(4-oxo-3,4-dihydrophthalazin-1-yl)phenyl]-1H-indazole-3-carboxamide] | 7.00 to 10.00 | 7.00 to 10.00
O=C(Nc1ccc(-c2n[nH]c(=O)c3ccccc23)cc1)c1nn(CC2CCCCO2)c2ccccc12 (centres unmarked) [Example 168, 1-(oxan-2-ylmethyl)-N-[4-(4-oxo-3,4-dihydrophthalazin-1-yl)phenyl]-1H-indazole-3-carboxamide] | 7.00 to 10.00 | 7.00 to 10.00
O=C(Nc1ccc(-c2n[nH]c(=O)c3ccccc23)cc1)c1cnn(CC(F)F)c1 [Example 386, 1-(2,2-Difluoroethyl)-N-(4-(4-oxo-3,4-dihydrophthalazin-1-yl)phenyl)-1H-pyrazole-4-carboxamide] | 6.00 to 7.00 | 7.00 to 10.00
O=C(Nc1ccc(-c2n[nH]c(=O)c3ccccc23)cc1)C1CCN(Cc2ccccc2)C1 (centres unmarked) [Example 59, 1-benzyl-N-[4-(4-oxo-3,4-dihydrophthalazin-1-yl)phenyl]pyrrolidine-3-carboxamide] | 4.30 to 6.00 | 4.30 to 6.00
COC[C@@H]1CCCN1C(=O)Cc1ccc(-c2n[nH]c(=O)c3ccccc23)cc1 [Example 13, 4-(4-{2-[(2S)-2-(methoxymethyl)pyrrolidin-1-yl]-2-oxoethyl}phenyl)-1,2-dihydrophthalazin-1-one] | 4.30 to 6.00 | 4.30 to 6.00
O=C(Nc1ccc(-c2n[nH]c(=O)c3ccccc23)cc1)c1cnn(CCC(F)(F)F)c1 [Example 398, N-(4-(4-Oxo-3,4-dihydrophthalazin-1-yl)phenyl)-1-(3,3,3-trifluoropropyl)-1H-pyrazole-4-carboxamide] | 6.00 to 7.00 | 7.00 to 10.00
CC(C)(O)Cn1nc(C(=O)Nc2ccc(-c3n[nH]c(=O)c4ccccc34)c(Cl)c2)c2ccccc21 [Example 315, N-[3-chloro-4-(4-oxo-3,4-dihydrophthalazin-1-yl)phenyl]-1-(2-hydroxy-2-methylpropyl)-1H-indazole-3-carboxamide] | 7.00 to 10.00 | 7.00 to 10.00
CN(C)CCOc1ccc2c(c1)N(C(=O)Cc1ccc(-c3n[nH]c(=O)c4ccccc34)cc1)CC2 [Example 279, 4-[4-(2-{6-[2-(dimethylamino)ethoxy]-2,3-dihydro-1H-indol-1-yl}-2-oxoethyl)phenyl]-1,2-dihydrophthalazin-1-one] | 6.00 to 7.00 | 7.00 to 10.00
Cc1cccc(N2CCC(C(=O)Nc3ccc(-c4n[nH]c(=O)c5ccccc45)cc3)C2=O)c1 (centres unmarked) [Example 209, 1-(3-methylphenyl)-2-oxo-N-[4-(4-oxo-3,4-dihydrophthalazin-1-yl)phenyl]pyrrolidine-3-carboxamide] | 6.00 to 7.00 | 6.00 to 7.00
O=C(Nc1ccc(-c2n[nH]c(=O)c3ccccc23)c(CO)c1)c1nn(CCO)c2ccccc12 [Example 359, 1-(2-Hydroxyethyl)-N-(3-(hydroxymethyl)-4-(4-oxo-3,4-dihydrophthalazin-1-yl)phenyl)-1H-indazole-3-carboxamide] | 4.30 to 6.00 | 7.00 to 10.00
O=C(Cc1ccc(-c2n[nH]c(=O)c3ccccc23)cc1)Nc1nccs1 [Example 28, 2-[4-(4-oxo-3,4-dihydrophthalazin-1-yl)phenyl]-N-(1,3-thiazol-2-yl)acetamide] | 4.30 to 6.00 | 6.00 to 7.00
O=C(Nc1ccc(-c2n[nH]c(=O)c3ccccc23)cc1)c1ccnn1-c1ccccc1 [Example 236, N-[4-(4-oxo-3,4-dihydrophthalazin-1-yl)phenyl]-1-phenyl-1H-pyrazole-5-carboxamide] | 6.00 to 7.00 | 7.00 to 10.00
O=C(Nc1ccc(-c2n[nH]c(=O)c3ccccc23)cc1)c1nn(Cc2cccnc2)c2ccccc12 [Example 161, N-[4-(4-oxo-3,4-dihydrophthalazin-1-yl)phenyl]-1-(pyridin-3-ylmethyl)-1H-indazole-3-carboxamide] | 7.00 to 10.00 | 7.00 to 10.00

Second part, the molecule after the results:

pIC50 (ROCK1) | pIC50 (ROCK2) | Compound
7.00 to 10.00 | 7.00 to 10.00 | O=C(Cc1ccc(-c2n[nH]c(=O)c3ccccc23)cc1)N1CCc2ccc(OCc3cccnc3)cc21 [Example 270, 4-(4-{2-oxo-2-[6-(pyridin-3-ylmethoxy)-2,3-dihydro-1H-indol-1-yl]ethyl}phenyl)-1,2-dihydrophthalazin-1-one]
7.00 to 10.00 | 7.00 to 10.00 | CC(C)(O)Cn1cc(C(=O)Nc2ccc(-c3n[nH]c(=O)c4ccccc34)cc2)c2cccnc21 [Example 169, 1-(2-hydroxy-2-methylpropyl)-N-[4-(4-oxo-3,4-dihydrophthalazin-1-yl)phenyl]-1H-pyrrolo[2,3-b]pyridine-3-carboxamide]
7.00 to 10.00 | 7.00 to 10.00 | Cc1noc(-c2ccc(C(C)(C)O)cc2)c1C(=O)Nc1ccc(-c2n[nH]c(=O)c3ccccc23)cc1 [Example 223, 5-[4-(2-hydroxypropan-2-yl)phenyl]-3-methyl-N-[4-(4-oxo-3,4-dihydrophthalazin-1-yl)phenyl]-1,2-oxazole-4-carboxamide]
6.00 to 7.00 | 7.00 to 10.00 | O=C(Cc1ccc(-c2n[nH]c(=O)c3ccccc23)cc1)N1CCc2ccccc21 [Example 23, 4-{4-[2-(2,3-dihydro-1H-indol-1-yl)-2-oxoethyl]phenyl}-1,2-dihydrophthalazin-1-one]
7.00 to 10.00 | 7.00 to 10.00 | Cc1c(C(=O)Nc2ccc(-c3n[nH]c(=O)c4ccccc34)cc2)nnn1-c1ccccc1F [Example 222, 1-(2-fluorophenyl)-5-methyl-N-[4-(4-oxo-3,4-dihydrophthalazin-1-yl)phenyl]-1H-1,2,3-triazole-4-carboxamide]
7.00 to 10.00 | 7.00 to 10.00 | O=C(Nc1ccc(-c2n[nH]c(=O)c3ccccc23)cc1)c1ccc(-n2ccnc2)cc1 [Example 65, 4-(1H-imidazol-1-yl)-N-[4-(4-oxo-3,4-dihydrophthalazin-1-yl)phenyl]benzamide]
7.00 to 10.00 | 7.00 to 10.00 | O=C(Nc1ccc(-c2n[nH]c(=O)c3ccccc23)cc1)c1n[nH]c2ncccc12 [Example 110, N-[4-(4-oxo-3,4-dihydrophthalazin-1-yl)phenyl]-1H-pyrazolo[3,4-b]pyridine-3-carboxamide]
7.00 to 10.00 | 7.00 to 10.00 | O=C(Nc1ccc(-c2n[nH]c(=O)c3ccccc23)cc1)c1cnn([C@H]2C[C@@H]3CC[C@H]2C3)c1 [Example 393, 1-((1S,2S,4R)-Bicyclo[2.2.1]heptan-2-yl)-N-(4-(4-oxo-3,4-dihydrophthalazin-1-yl)phenyl)-1H-pyrazole-4-carboxamide]
7.00 to 10.00 | 7.00 to 10.00 | COc1ccc2cc(C(=O)Nc3ccc(-c4n[nH]c(=O)c5ccccc45)cc3)n(C)c2c1 [Example 127, 6-methoxy-1-methyl-N-[4-(4-oxo-3,4-dihydrophthalazin-1-yl)phenyl]-1H-indole-2-carboxamide]
7.00 to 10.00 | 7.00 to 10.00 | Cc1cc(C(=O)Nc2ccc(-c3n[nH]c(=O)c4ccccc34)cc2)nn1-c1ccccc1 [Example 213, 5-methyl-N-[4-(4-oxo-3,4-dihydrophthalazin-1-yl)phenyl]-1-phenyl-1H-pyrazole-3-carboxamide]
7.00 to 10.00 | 7.00 to 10.00 | Cn1nc(C(=O)Nc2ccc(-c3n[nH]c(=O)c4ccccc34)cc2)cc1C(C)(C)C [Example 206, 5-tert-butyl-1-methyl-N-[4-(4-oxo-3,4-dihydrophthalazin-1-yl)phenyl]-1H-pyrazole-3-carboxamide]

From patent US9926282B2, “Phthalazinones and isoquinolinones as rock inhibitors” (BRISTOL-MYERS SQUIBB COMPANY, priority 2013, dated 2018)
